Results published in patent US5440016A, “Peptides of the formula (KFmoc) ZZZ and their uses” (priority 1993, dated 1995).
Values after ≈ are worked out from the molar mass of the structure shown. Read-outs that look alike come from different tables or passages of the source. Square brackets hold non-standard residues; d marks the D form. Ends that are not written are not given here. Peptide text beside a SMILES is read from it. * marks the point of attachment. Fmoc = O=C(OCC1c2ccccc2-c2ccccc21)*

How the values were obtained:
[1] = system: Candida albicans ATCC 10231
[2] = system: Staphylococcus aureus ATCC 29213
Experimental: Escherichia coli ATCC 25922 and P. aeruginosa ATCC 27853 were used as Gram-negative (-) and Staphylococcus aureus ATCC 29213 as Gram-positive (+) bacteria. Bacteria were grown overnight at 37° C. in Mueller-Hinton (MH) broth. This culture was reinoculated and incubated at 37° C. to reach the exponential phase of bacteria growth, i.e., a final bacterial suspension containing 10^5 to 5×10^5 colony-forming units (CFU)/ml. The concentration of cells was established by plating 100 μl of different dilutions of the culture solution (e.g., 10^-2, 10^-3 and 10^-4) onto solid agar plates.
Following an overnight incubation at 37° C., the CFU thus formed were counted on each agar plate. In 96-well tissue culture plates, as control blanks, eight wells per plate contained only medium, while as a positive growth control, eight other wells contained medium plus cells.
The plates were incubated overnight at 37° C., and the optical density (OD) determined at 620 nm after different times of incubation.

[3] = system: Streptococcus sanguis ATCC 10556
[4] = system: Human red blood cells (RBCs); experiment: Hemolytic activity; type: cell-based; conditions: Tables 18-21
[5] = system: Escherichia coli ATCC 25922
melittin = melittin (Apis mellifera, UniProt P01501); experiment: cell-based; conditions: read-out: IC50, inhibition of melittin (converted)
[6] = Tables 2-5, concentration necessary to inhibit 50% growth
[7] = Tables 7-9, lower parts (unnatural amino acids)
[8] = Tables 11-13, lower parts (unnatural amino acids)
[9] = Tables 15-17, lower parts (unnatural amino acids)
[10] = Tables 3-5, lower parts (unnatural amino acids)

Sequence of melittin (P01501 44-69 limits assumed): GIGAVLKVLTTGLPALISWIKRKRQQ

| Compound | IC50 against C. albicans ([1]; Tables 14-17) [µg/mL] | IC50 against S. aureus ([2]; Tables 6-9) [µg/mL] | IC50 against S. sanguis ([3]; Tables 10-13) [µg/mL] | HD50 (concentration necessary to lyse 50% of the cells) [4] [µg/mL] | IC50 against E. coli [5, 6] [µg/mL] | IC50 against S. aureus [2, 7] [μg/m] | IC50 against S. sanguis [3, 8] [μg/m] | IC50 against C. albicans [1, 9] [μg/m] | IC50 against E. coli [5, 10] [μg/m] | IC50 (melittin) [µM] |
| --- | --- | --- | --- | --- | --- | --- | --- | --- | --- | --- |
| C[C@@H](NC(=O)[C@H](CCCCN)NC(=O)[C@H](Cc1c[nH]c2ccccc12)NC(=O)[C@H](CCCCN)NC(=O)OCC1c2ccccc2-c2ccccc21)C(N)=O [(KFmoc)WKa-NH2] (Fmoc-KWK[dA]-NH2) | 200 (≈ 266 µM) | 7 (≈ 9.3 µM) | 8 (≈ 10.6 µM) | 437 | 60 (≈ 79.7 µM) |  |  |  |  |  |
| NCCCC[C@H](NC(=O)OCC1c2ccccc2-c2ccccc21)C(=O)N[C@@H](Cc1c[nH]c2ccccc12)C(=O)N[C@@H](CCCCN)C(=O)N[C@H](CS)C(N)=O [(KFmoc)WKc-NH2] (Fmoc-KWK[dC]-NH2) | 243 (≈ 310 µM) | 4 (≈ 5.1 µM) | 4 (≈ 5.1 µM) | 25 | 23 (≈ 29.3 µM) |  |  |  |  |  |
| NCCCC[C@H](NC(=O)OCC1c2ccccc2-c2ccccc21)C(=O)N[C@@H](Cc1c[nH]c2ccccc12)C(=O)N[C@@H](CCCCN)C(=O)N[C@H](Cc1ccccc1)C(N)=O [(KFmoc)WKf-NH2] (Fmoc-KWK[dF]-NH2) | 133 (≈ 160 µM) | 10 (≈ 12.1 µM) | 6 (≈ 7.24 µM) | 126 | 38 (≈ 45.8 µM) |  |  |  |  |  |
| NCCCC[C@H](NC(=O)OCC1c2ccccc2-c2ccccc21)C(=O)N[C@@H](Cc1c[nH]c2ccccc12)C(=O)N[C@@H](CCCCN)C(=O)N[C@H](Cc1c[nH]cn1)C(N)=O [(KFmoc)WKh-NH2] (Fmoc-KWK[dH]-NH2) | 156 (≈ 190 µM) | 6 (≈ 7.33 µM) | 6 (≈ 7.33 µM) | 313 | 52 (≈ 63.5 µM) |  |  |  |  |  |
| CC[C@@H](C)[C@@H](NC(=O)[C@H](CCCCN)NC(=O)[C@H](Cc1c[nH]c2ccccc12)NC(=O)[C@H](CCCCN)NC(=O)OCC1c2ccccc2-c2ccccc21)C(N)=O [(KFmoc)WKi-NH2] (Fmoc-KWK[dI]-NH2) | 209 (≈ 263 µM) | 9 (≈ 11.3 µM) | 8 (≈ 10.1 µM) | 296 | 23 (≈ 28.9 µM) |  |  |  |  |  |
| NCCCC[C@H](NC(=O)OCC1c2ccccc2-c2ccccc21)C(=O)N[C@@H](Cc1c[nH]c2ccccc12)C(=O)N[C@@H](CCCCN)C(=O)N[C@H](CCCCN)C(N)=O [(KFmoc)WKk-NH2] (Fmoc-KWK[dK]-NH2) | 126 (≈ 156 µM) | 8 (≈ 9.88 µM) | 7 (≈ 8.64 µM) |  |  |  |  |  |  |  |
| CC(C)C[C@@H](NC(=O)[C@H](CCCCN)NC(=O)[C@H](Cc1c[nH]c2ccccc12)NC(=O)[C@H](CCCCN)NC(=O)OCC1c2ccccc2-c2ccccc21)C(N)=O [(KFmoc)WKl-NH2] (Fmoc-KWK[dL]-NH2) | 121 (≈ 152 µM) | 5 (≈ 6.29 µM) | 5 (≈ 6.29 µM) | 166 | 20 (≈ 25.2 µM) |  |  |  |  |  |
| CSCC[C@@H](NC(=O)[C@H](CCCCN)NC(=O)[C@H](Cc1c[nH]c2ccccc12)NC(=O)[C@H](CCCCN)NC(=O)OCC1c2ccccc2-c2ccccc21)C(N)=O [(KFmoc)WKm-NH2] (Fmoc-KWK[dM]-NH2) | 163 (≈ 200 µM) | 7 (≈ 8.61 µM) | 7 (≈ 8.61 µM) | 178 | 41 (≈ 50.4 µM) |  |  |  |  |  |
| NCCCC[C@H](NC(=O)OCC1c2ccccc2-c2ccccc21)C(=O)N[C@@H](Cc1c[nH]c2ccccc12)C(=O)N[C@@H](CCCCN)C(=O)N[C@H](CC(N)=O)C(N)=O [(KFmoc)WKn-NH2] (Fmoc-KWK[dN]-NH2) | 233 (≈ 293 µM) | 10 (≈ 12.6 µM) | 8 (≈ 10.1 µM) |  | 47 (≈ 59 µM) |  |  |  |  |  |
| NCCCC[C@H](NC(=O)OCC1c2ccccc2-c2ccccc21)C(=O)N[C@@H](Cc1c[nH]c2ccccc12)C(=O)N[C@@H](CCCCN)C(=O)N1CCC[C@@H]1C(N)=O [(KFmoc)WKp-NH2] (Fmoc-KWK[dP]-NH2) | 251 (≈ 322 µM) | 8 (≈ 10.3 µM) | 5 (≈ 6.42 µM) | 437 | 39 (≈ 50.1 µM) |  |  |  |  |  |
| NCCCC[C@H](NC(=O)OCC1c2ccccc2-c2ccccc21)C(=O)N[C@@H](Cc1c[nH]c2ccccc12)C(=O)N[C@@H](CCCCN)C(=O)N[C@H](CCC(N)=O)C(N)=O [(KFmoc)WKq-NH2] (Fmoc-KWK[dQ]-NH2) | 291 (≈ 359 µM) | 7 (≈ 8.64 µM) | 7 (≈ 8.64 µM) | 483 | 57 (≈ 70.4 µM) |  |  |  |  |  |
| N=C(N)NCCC[C@@H](NC(=O)[C@H](CCCCN)NC(=O)[C@H](Cc1c[nH]c2ccccc12)NC(=O)[C@H](CCCCN)NC(=O)OCC1c2ccccc2-c2ccccc21)C(N)=O [(KFmoc)WKr-NH2] (Fmoc-KWK[dR]-NH2) | 98 (≈ 117 µM) | 7 (≈ 8.35 µM) | 5 (≈ 5.97 µM) | 324 | 66 (≈ 78.8 µM) |  |  |  |  |  |
| NCCCC[C@H](NC(=O)OCC1c2ccccc2-c2ccccc21)C(=O)N[C@@H](Cc1c[nH]c2ccccc12)C(=O)N[C@@H](CCCCN)C(=O)N[C@H](CO)C(N)=O [(KFmoc)WKs-NH2] (Fmoc-KWK[dS]-NH2) | 214 (≈ 278 µM) | 6 (≈ 7.8 µM) | 6 (≈ 7.8 µM) | 296 | 57 (≈ 74.1 µM) |  |  |  |  |  |
| C[C@H](O)[C@@H](NC(=O)[C@H](CCCCN)NC(=O)[C@H](Cc1c[nH]c2ccccc12)NC(=O)[C@H](CCCCN)NC(=O)OCC1c2ccccc2-c2ccccc21)C(N)=O [(KFmoc)WKt-NH2] (Fmoc-KWK[dT]-NH2) | 292 (≈ 373 µM) | 10 (≈ 12.8 µM) | 7 (≈ 8.94 µM) | 435 | 55 (≈ 70.2 µM) |  |  |  |  |  |
| NCCCC[C@H](NC(=O)OCC1c2ccccc2-c2ccccc21)C(=O)N[C@@H](Cc1c[nH]c2ccccc12)C(=O)N[C@@H](Cc1ccc(O)cc1)C(=O)N[C@H](CS)C(N)=O [(KFmoc)WYc-NH2] (Fmoc-KWY[dC]-NH2) |  | 21 (≈ 25.6 µM) | 42 (≈ 51.2 µM) |  |  |  |  |  |  |  |
| NCCCC[C@H](NC(=O)OCC1c2ccccc2-c2ccccc21)C(=O)N[C@@H](Cc1c[nH]c2ccccc12)C(=O)N[C@@H](Cc1ccc(O)cc1)C(=O)N[C@H](CC(N)=O)C(N)=O [(KFmoc)WYn-NH2] (Fmoc-KWY[dN]-NH2) |  | 6 (≈ 7.22 µM) | 8 (≈ 9.63 µM) | 257 |  |  |  |  |  |  |

| Compound | IC50 against C. albicans ([1]; Tables 14-17) [µg/mL] | IC50 against S. aureus ([2]; Tables 6-9) [µg/mL] | IC50 against S. sanguis ([3]; Tables 10-13) [µg/mL] | HD50 (concentration necessary to lyse 50% of the cells) [4] [µg/mL] | IC50 against E. coli [5, 6] [µg/mL] | IC50 against S. aureus [2, 7] [μg/m] | IC50 against S. sanguis [3, 8] [μg/m] | IC50 against C. albicans [1, 9] [μg/m] | IC50 against E. coli [5, 10] [μg/m] | IC50 (melittin) [µM] |
| --- | --- | --- | --- | --- | --- | --- | --- | --- | --- | --- |
| CC[C@@H](C)[C@@H](NC(=O)[C@@H](Cc1ccccc1)NC(=O)[C@H](Cc1c[nH]c2ccccc12)NC(=O)[C@H](CCCCN)NC(=O)OCC1c2ccccc2-c2ccccc21)C(N)=O [(KFmoc)Wfi-NH2] (Fmoc-KW[dF][dI]-NH2) |  | 4 (≈ 4.91 µM) | 4 (≈ 4.91 µM) |  |  |  |  |  |  |  |
| NCCCC[C@H](NC(=O)OCC1c2ccccc2-c2ccccc21)C(=O)N[C@@H](Cc1c[nH]c2ccccc12)C(=O)N[C@H](Cc1ccccc1)C(=O)N[C@H](Cc1ccc(O)cc1)C(N)=O [(KFmoc)Wfy-NH2] (Fmoc-KW[dF][dY]-NH2) |  | 15 (≈ 17.4 µM) | 17 (≈ 19.7 µM) |  |  |  |  |  |  |  |
| CC[C@@H](C)[C@@H](NC(=O)[C@@H](CS)NC(=O)[C@H](CCCCN)NC(=O)OCC1c2ccccc2-c2ccccc21)C(=O)N[C@H](C)C(N)=O [(KFmoc)cia-NH2] (Fmoc-K[dC][dI][dA]-NH2) |  |  | 59 (≈ 90.1 µM) | 77 |  |  |  |  |  |  |
| CC[C@@H](C)[C@@H](NC(=O)[C@@H](CS)NC(=O)[C@H](CCCCN)NC(=O)OCC1c2ccccc2-c2ccccc21)C(=O)N[C@H](Cc1ccccc1)C(N)=O [(KFmoc)cif-NH2] (Fmoc-K[dC][dI][dF]-NH2) | 218 (≈ 298 µM) | 21 (≈ 28.7 µM) |  |  |  |  |  |  |  |  |
| (KFmoc)WK(Cys[ACM])-NH2 | 303 | 11 | 11 |  | 49 |  |  |  |  |  |
| (KFmoc)WK(Hyp)-NH2 | 370 | 10 | 10 |  | 62 |  |  |  |  |  |
| (KFmoc)WK(KCBZ)-NH2 | 161 | 9 | 9 |  |  |  |  |  |  |  |
| (KFmoc)WY(Hyp)-NH2 |  |  |  | 81 |  | 9 | 10 |  |  |  |
| (KFmoc)WY(KCBZ)-NH2 |  |  |  |  |  | 9 | 9 | 309 | 59 |  |
| (KFmoc)Wf(7aHa)-NH2 |  |  |  |  |  | 7 | 10 |  |  |  |
| (KFmoc)Wf(Cys[ACM])-NH2 |  |  |  |  |  | 18 | 30 |  |  |  |
| (KFmoc)ci(Thiopro)-NH2 |  |  |  |  |  | 9 | 6 | 197 | 25 |  |
| (KFmoc)ciG-NH2 | 372 |  | 23 | 35 |  |  |  |  |  |  |
| NEEIVF-NH2 [NEEIVF-NH2] |  |  |  |  |  |  |  |  |  | 1210 |
| NEEIVI-NH2 [NEEIVI-NH2] |  |  |  |  |  |  |  |  |  | 509 |
